Data taken from ChEMBL document CHEMBL1201862, “PubChem BioAssay data set” (2004).
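Each compound was tested at five concentrations against cells in 96-well plates for 48 hours. The concentration for 50% growth inhibition is given as GI50.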 Activity calls are given as the source filed them. No stated cut-off is given here; in the data, active = GI50 up to about 1.1 µM and inactive = higher. Peptide text beside a SMILES is read from it. * marks the point of attachment. Boc = CC(C)(C)OC(=O)*

Tests used:
Experiment in all cases: NCI anticancer screen, dose series, 48 h
CAKI-1 = test system: CAKI-1
COLO 205 = test system: COLO 205
DU-145 = test system: DU-145
HT-29 = test system: HT-29
IGROV-1 = test system: IGROV-1
LOX IMVI = test system: LOX IMVI
MCF7 = test system: MCF7
MDA-MB-231 = test system: MDA-MB-231
MDA-MB-435 = test system: MDA-MB-435
MDA-N = test system: MDA-N
NCI-H226 = test system: NCI-H226
NCI-H460 = test system: NCI-H460
NCI-H522 = test system: NCI-H522
OVCAR-3 = test system: OVCAR-3
OVCAR-4 = test system: OVCAR-4
RXF 393 = test system: RXF 393
SNB-19 = test system: SNB-19
U-251 = test system: U-251
UO-31 = test system: UO-31
UACC-62 = test system: UACC-62

SMILES	GI50 (CAKI-1)	GI50 (COLO 205)	GI50 (DU-145)	GI50 (HT-29)	GI50 (IGROV-1)	GI50 (LOX IMVI)	GI50 (MCF7)	GI50 (MDA-MB-231)	GI50 (MDA-MB-435)	GI50 (MDA-N)	GI50 (NCI-H226)	GI50 (NCI-H460)	GI50 (NCI-H522)	GI50 (OVCAR-3)	GI50 (OVCAR-4)	GI50 (RXF 393)	GI50 (SNB-19)	GI50 (U-251)	GI50 (UO-31)	GI50 (UACC-62)
C=CC(Br)(CBr)CCC1OC1(C)C (stereo unspecified)	19.5 µM (inactive)	18.7 µM (inactive)	25.3 µM (inactive)	17.4 µM (inactive)	13.2 µM (inactive)	5.47 µM (inactive)	14.1 µM (inactive)	11.8 µM (inactive)	17.3 µM (inactive)	11.3 µM (inactive)	19.8 µM (inactive)	14.2 µM (inactive)	17.2 µM (inactive)	19.5 µM (inactive)	16.3 µM (inactive)	9.23 µM (inactive)	17.3 µM (inactive)	17 µM (inactive)	18.2 µM (inactive)	–
COC(Cc1ccccc1)NC(C)=O (stereo unspecified)	> 100 µM (inactive)	> 100 µM (inactive)	> 100 µM (inactive)	> 100 µM (inactive)	> 100 µM (inactive)	> 100 µM (inactive)	> 100 µM (inactive)	> 100 µM (inactive)	> 100 µM (inactive)	> 100 µM (inactive)	> 100 µM (inactive)	> 100 µM (inactive)	> 100 µM (inactive)	> 100 µM (inactive)	> 100 µM (inactive)	> 100 µM (inactive)	> 100 µM (inactive)	> 100 µM (inactive)	> 100 µM (inactive)	> 100 µM (inactive)
COC(=O)C1=C(C(=O)OC)C(C(=O)OC)C(C(=O)OC)C(C(=O)OC)(C(=O)OC)C(C(=O)OC)=C1C(=O)OC (stereo unspecified)	15.1 µM (inactive)	4.27 µM (inactive)	18.2 µM (inactive)	13.3 µM (inactive)	18.1 µM (inactive)	13.5 µM (inactive)	15.4 µM (inactive)	20.9 µM (inactive)	18.7 µM (inactive)	17.1 µM (inactive)	15.9 µM (inactive)	19 µM (inactive)	1.96 µM (inactive)	15.1 µM (inactive)	22.8 µM (inactive)	7.43 µM (inactive)	17.6 µM (inactive)	16.9 µM (inactive)	16.3 µM (inactive)	15.5 µM (inactive)
CCOC(=O)C(NCc1ccc2c(c1)OCO2)(NC(=O)c1ccccc1)C(F)(F)F (stereo unspecified)	> 100 µM (inactive)	> 100 µM (inactive)	> 100 µM (inactive)	> 100 µM (inactive)	> 100 µM (inactive)	> 100 µM (inactive)	60.3 µM (inactive)	64.4 µM (inactive)	> 100 µM (inactive)	> 100 µM (inactive)	> 100 µM (inactive)	–	39.1 µM (inactive)	> 100 µM (inactive)	76.7 µM (inactive)	> 100 µM (inactive)	> 100 µM (inactive)	> 100 µM (inactive)	51.3 µM (inactive)	> 100 µM (inactive)
N#C[BH2-][n+]1cn(C2CC(O)C(COP(=O)(O)OC3CC(n4c[n+]([BH2-]C#N)c5c(=O)[nH]c(N)nc54)OC3CO)O2)c2nc(N)[nH]c(=O)c21 (stereo unspecified)	> 100 µM (inactive)	> 100 µM (inactive)	> 100 µM (inactive)	> 100 µM (inactive)	> 100 µM (inactive)	–	> 100 µM (inactive)	> 100 µM (inactive)	> 100 µM (inactive)	> 100 µM (inactive)	> 100 µM (inactive)	> 100 µM (inactive)	> 100 µM (inactive)	> 100 µM (inactive)	> 100 µM (inactive)	> 100 µM (inactive)	> 100 µM (inactive)	> 100 µM (inactive)	> 100 µM (inactive)	> 100 µM (inactive)
COc1cc(CNc2nc3cc(C(F)(F)F)ccc3nc2C)cc(OC)c1OC	24.7 µM (inactive)	12.8 µM (inactive)	26.4 µM (inactive)	17.2 µM (inactive)	14.7 µM (inactive)	13.9 µM (inactive)	> 10 µM (inactive)	14.5 µM (inactive)	19.5 µM (inactive)	15.8 µM (inactive)	> 10 µM (inactive)	16.3 µM (inactive)	18.3 µM (inactive)	25.2 µM (inactive)	–	16.6 µM (inactive)	35.1 µM (inactive)	15.3 µM (inactive)	17.7 µM (inactive)	7.96 µM (inactive)
O=c1ssc2ncccc12	56.6 µM (inactive)	17.9 µM (inactive)	33.7 µM (inactive)	23.6 µM (inactive)	–	16.3 µM (inactive)	13.8 µM (inactive)	11.9 µM (inactive)	15.4 µM (inactive)	19 µM (inactive)	0.212 µM (active)	20.4 µM (inactive)	7.8 µM (inactive)	18.4 µM (inactive)	–	18.1 µM (inactive)	39.2 µM (inactive)	15.7 µM (inactive)	16.4 µM (inactive)	11.6 µM (inactive)
CCOC(=O)c1nc2cc(C(F)(F)F)ccc2nc1Nc1ccc(OC)cc1	> 100 µM (inactive)	47.4 µM (inactive)	> 100 µM (inactive)	> 100 µM (inactive)	> 100 µM (inactive)	41.5 µM (inactive)	> 100 µM (inactive)	61.7 µM (inactive)	> 100 µM (inactive)	> 100 µM (inactive)	> 100 µM (inactive)	–	> 100 µM (inactive)	> 100 µM (inactive)	–	56.1 µM (inactive)	54.3 µM (inactive)	–	> 100 µM (inactive)	> 100 µM (inactive)
COc1ccc(COCC[C@H](C)OC2OC(CO[Si](C)(C)C(C)(C)C)C(OC(=O)CCCN=[N+]=[N-])C(OC(=O)CCCN=[N+]=[N-])C2OC(=O)CCCN=[N+]=[N-])cc1 (stereo partly specified)	36.9 µM (inactive)	25.6 µM (inactive)	> 100 µM (inactive)	22.3 µM (inactive)	51.5 µM (inactive)	25.2 µM (inactive)	25.9 µM (inactive)	> 100 µM (inactive)	> 100 µM (inactive)	44.9 µM (inactive)	8.39 µM (inactive)	55.5 µM (inactive)	18.7 µM (inactive)	61.8 µM (inactive)	27.9 µM (inactive)	98.2 µM (inactive)	–	29.6 µM (inactive)	19.9 µM (inactive)	58.9 µM (inactive)
C[C@@](Br)(C(=O)O)[C@H](Br)C(=O)O	55.5 µM (inactive)	> 100 µM (inactive)	> 100 µM (inactive)	> 100 µM (inactive)	> 100 µM (inactive)	> 100 µM (inactive)	> 100 µM (inactive)	> 100 µM (inactive)	> 100 µM (inactive)	> 100 µM (inactive)	> 100 µM (inactive)	> 100 µM (inactive)	–	> 100 µM (inactive)	> 100 µM (inactive)	> 100 µM (inactive)	> 100 µM (inactive)	> 100 µM (inactive)	> 100 µM (inactive)	> 100 µM (inactive)
c1ccc(C2=NCCc3cc4c(cc32)OCO4)cc1	> 100 µM (inactive)	> 100 µM (inactive)	> 100 µM (inactive)	–	> 100 µM (inactive)	> 100 µM (inactive)	> 100 µM (inactive)	> 100 µM (inactive)	> 100 µM (inactive)	> 100 µM (inactive)	–	–	> 100 µM (inactive)	> 100 µM (inactive)	> 100 µM (inactive)	> 100 µM (inactive)	> 100 µM (inactive)	> 100 µM (inactive)	–	> 100 µM (inactive)
O=C1CSC(c2c[nH]c3ccccc23)N1c1ccc(Cl)cc1Cl (stereo unspecified)	–	> 100 µM (inactive)	> 100 µM (inactive)	> 100 µM (inactive)	> 100 µM (inactive)	> 100 µM (inactive)	> 100 µM (inactive)	> 100 µM (inactive)	> 10 µM (inactive)	> 100 µM (inactive)	–	> 100 µM (inactive)	> 100 µM (inactive)	> 100 µM (inactive)	> 100 µM (inactive)	> 100 µM (inactive)	> 100 µM (inactive)	> 100 µM (inactive)	> 100 µM (inactive)	> 100 µM (inactive)
CN(C)CCOc1ccc2[nH]c(C(=O)N3CC(CCl)c4c3cc(NC(=O)OCc3ccc([N+](=O)[O-])cc3)c3ccccc43)cc2c1 (stereo unspecified)	1.18 µM (inactive)	1.64 µM (inactive)	0.552 µM (active)	–	1.45 µM (inactive)	1.45 µM (inactive)	0.211 µM (active)	2.14 µM (inactive)	1.6 µM (inactive)	1.6 µM (inactive)	1.67 µM (inactive)	4.05 µM (inactive)	1.12 µM (inactive)	1.63 µM (inactive)	1.99 µM (inactive)	1.51 µM (inactive)	1.71 µM (inactive)	1.36 µM (inactive)	1.28 µM (inactive)	1.83 µM (inactive)
CC(NC(=O)OC(C)(C)C)C(=O)NC(Cc1ccccc1)C(=O)NCC(=O)O (stereo not drawn) (Boc-Ala-Phe-Gly-OH; configuration not given here)	> 100 µM (inactive)	> 100 µM (inactive)	> 100 µM (inactive)	> 100 µM (inactive)	> 100 µM (inactive)	> 100 µM (inactive)	> 100 µM (inactive)	> 100 µM (inactive)	> 100 µM (inactive)	> 100 µM (inactive)	> 100 µM (inactive)	> 100 µM (inactive)	> 100 µM (inactive)	> 100 µM (inactive)	–	> 100 µM (inactive)	> 100 µM (inactive)	> 100 µM (inactive)	> 100 µM (inactive)	> 100 µM (inactive)
